According to patent US20250214942A1, “INHIBITORS OF RECEPTOR INTERACTING PROTEIN KINASE I FOR THE TREATMENT OF DISEASE” (Board of Regents, The University of Texas System, priority 2019, published 2025):

Legend:
[1] = biological target: RIPK1 (Homo sapiens (Human), UniProt Q13546); assay: ADP-Glo kinase assay (RIPK1 activity, conversion of ATP to ADP); assay type: biochemical; conditions: for IC50: 5 nM RIPK1, 50 μM ATP, 6 h reaction, read-out: RIPK1 Enzyme Avg IC50
Outline: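 ADP-Glo luminescence of ATP-to-ADP conversion by 5 nM RIPK1 with 50 μM ATP (final), 6 h reaction after 10 min compound preincubation at rt. Buffer was 50 mM HEPES pH 7.5, 30 mM MgCl2, 0.05% BSA, 0.02% CHAPS. IC50 from four-parameter logistic fit.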

[2] = system: human monocytic cell line U937; assay: Human U937 cellular necroptosis assay (TNFalpha + z-VAD-FMK, Cell Titer-Glo viability); assay type: cell-based; conditions: Homo sapiens, U-937, 22 h, U937 cells, 25 ng/mL human TNFalpha + 25 μM z-VAD-FMK, read-out: hU937 Avg IC50
Outline: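 Cells resuspended in phenol red-free RPMI with 10% FBS, stimulated with 25 ng/mL human TNFalpha plus 25 μM z-VAD-FMK, then given serially diluted compound for 22 h at 37° C, 5% CO2. Viability by Cell Titer-Glo 2.0 luminescence; IC50 from four-parameter logistic fit, averaged across runs.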

Sequence of RIPK1 (Q13546 1-327): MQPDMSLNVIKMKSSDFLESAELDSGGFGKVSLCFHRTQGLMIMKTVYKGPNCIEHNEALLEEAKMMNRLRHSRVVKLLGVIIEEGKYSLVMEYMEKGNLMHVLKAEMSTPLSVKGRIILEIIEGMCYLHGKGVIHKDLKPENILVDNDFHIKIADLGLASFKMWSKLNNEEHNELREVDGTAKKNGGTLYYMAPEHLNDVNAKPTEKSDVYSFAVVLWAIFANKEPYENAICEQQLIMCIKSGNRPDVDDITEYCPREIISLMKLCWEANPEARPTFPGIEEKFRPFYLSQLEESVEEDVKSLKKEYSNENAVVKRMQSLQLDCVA

SMILES	IC50 [1]	observed potency relative to the other enantiomer ([1]; enantiomers separated by SFC, assay not named)	IC50 [2]
O=C(N1N=CCC1c1cc(F)cc(F)c1)C12CC(Cn3cc4c(n3)CCC4)(C1)C2 (stereo not drawn) [Example 144, (5-(3,5-difluorophenyl)-4,5-dihydro-1H-pyrazol-1-yl)(3-((5,6-dihydrocyclopenta[c]-pyrazol-2(4H)-yl)methyl)-bicyclo[1.1.1]pentan-1-yl)methanone]	145 nM	–	1180 nM
Cc1ccc2c(cnn2CC23CC(C(=O)N4N=CCC4c4cncc(F)c4)(C2)C3)n1 (stereo not drawn) [Example 132, (5-(5-fluoropyridin-3-yl)-4,5-dihydro-1H-pyrazol-1-yl)(3-((5-methyl-1H-pyrazolo[4,3-b]pyridin-1-yl)methyl)-bicyclo[1.1.1]pentan-1-yl)methanone]	139 nM	–	826 nM
O=C(N1N=CCC1c1cc(F)cc(F)c1)C12CC(COc3cc(F)cnc3F)(C1)C2 (stereo not drawn) [Example 328, (5-(3,5-difluorophenyl)-4,5-dihydro-1H-pyrazol-1-yl)(3-(((2,5-difluoropyridin-3-yl)-oxy)methyl)bicyclo[1.1.1]-pentan-1-yl)methanone]	116 nM	–	409 nM
N#Cc1cc(OCC23CC(C(=O)N4N=CCC4c4cc(F)cc(F)c4)(C2)C3)ncn1 (stereo not drawn) [Example 9, 6-((3-(5-(3,5-Difluorophenyl)-4,5-dihydro-1H-pyrazole-1-carbonyl)bicyclo[1.1.1]pentan-1-yl)methoxy)pyrimidine-4-carbonitrile]	16 nM	–	62 nM
Cc1cnc(C2CC=NN2C(=O)C23CC(Cn4ncc5ncccc54)(C2)C3)cn1 (stereo not drawn) [Example 151, (3-((1H-pyrazolo[4,3-b]-pyridin-1-yl)methyl)bicyclo-[1.1.1]pentan-1-yl)(5-(5-methylpyrazin-2-yl)-4,5-dihydro-1H-pyrazol-1-yl)methanone]	242 nM	–	1190 nM
N#Cc1ccc2nn(CC34CC(C(=O)N5N=CCC5c5cc(F)cc(F)c5)(C3)C4)cc2c1 (stereo not drawn) [Example 61, 2-((3-(5-(3,5-difluorophenyl)-4,5-dihydro-1H-pyrazole-1-carbonyl)bicyclo[1.1.1]-pentan-1-yl)methyl)-2H-indazole-5-carbonitrile]	45 nM	–	211 nM
CC1CC(c2cccc(F)c2)N(C(=O)C23CC(Cn4cc(C#N)cn4)(C2)C3)C1 (stereo not drawn) [Example 172, 1-((3-(2-(3-fluorophenyl)-4-methylpyrrolidine-1-carbonyl)bicyclo[1.1.1]-pentan-1-yl)methyl)-1H-pyrazole-4-carbonitrile]	4350 nM	–	> 10000 nM
O=C(N1CC(F)CC1c1cccc(F)c1)C12CC(COc3ccccc3)(C1)C2 (stereo not drawn) [Example 31, (4-Fluoro-2-(3-fluorophenyl)pyrrolidin-1-yl)(3-(phenoxymethyl)-bicyclo[1.1.1]pentan-1-yl)methanone]	55 nM	–	462 nM
N#Cc1cccc(C2CC=NN2C(=O)C23CC(Cn4ncc5cc(C#N)ccc54)(C2)C3)c1 (stereo not drawn) [Example 175, 1-((3-(5-(3-cyanophenyl)-4,5-dihydro-1H-pyrazole-1-carbonyl)bicyclo[1.1.1]-pentan-1-yl)methyl)-1H-indazole-5-carbonitrile]	16 nM	–	47 nM
Cc1c2cc(C#N)ccc2nn1CC12CC(C(=O)N3N=CCC3c3cncc(F)c3)(C1)C2 (stereo not drawn) [Example 129, 2-((3-(5-(5-fluoropyridin-3-yl)-4,5-dihydro-1H-pyrazole-1-carbonyl)bicyclo[1.1.1]-pentan-1-yl)methyl)-3-methyl-2H-indazole-5-carbonitrile]	515 nM	–	3860 nM
O=C(N1N=CCC1c1cc(F)cc(F)c1)C12CC(Cn3ncc4cccnc43)(C1)C2 (stereo not drawn) [Example 89, (3-((1H-pyrazolo[3,4-b]-pyridin-1-yl)methyl)bicyclo-[1.1.1]pentan-1-yl)(5-(3,5-difluorophenyl)-4,5-dihydro-1H-pyrazol-1-yl)methanone]	25 nM	–	137 nM
Cc1cncc(C2CC=NN2C(=O)C23CC(Cn4cc(C#N)cn4)(C2)C3)n1 (stereo not drawn) [Example 169, 1-((3-(5-(6-methylpyrazin-2-yl)-4,5-dihydro-1H-pyrazole-1-carbonyl)bicyclo[1.1.1]-pentan-1-yl)methyl)-1H-pyrazole-4-carbonitrile]	343 nM	–	3310 nM
N#Cc1cnn(CC23CC(C(=O)N4N=CCC4c4ccccc4)(C2)C3)c1 (stereo not drawn) [Example 138, 1-((3-(5-phenyl-4,5-dihydro-1H-pyrazole-1-carbonyl)-bicyclo[1.1.1]pentan-1-yl)methyl)-1H-pyrazole-4-carbonitrile]	113 nM	–	417 nM
O=C(N1N=CCC1c1cc(F)cc(F)c1)C12CC(COc3cc(Br)ncn3)(C1)C2 (stereo not drawn) [Example 6, (3-(((6-Bromopyrimidin-4-yl)oxy)methyl)bicyclo[1.1.1]pentan-1-yl)(5-(3,5-difluorophenyl)-4,5-dihydro-1H-pyrazol-1-yl)methanone]	23 nM	–	20 nM

Second part, led by results:

IC50 [1]	observed potency relative to the other enantiomer ([1]; enantiomers separated by SFC, assay not named)	SMILES	IC50 [2]
21 nM	–	O=C(N1N=CCC1c1cc(F)cc(F)c1)C12CC(COc3cc(Cl)ncn3)(C1)C2 (stereo not drawn) [Example 7, (3-(((6-Chloropyrimidin-4-yl)oxy)methyl)bicyclo[1.1.1]pentan-1-yl)(5-(3,5-difluorophenyl)-4,5-dihydro-1H-pyrazol-1-yl)methanone]	18 nM
1010 nM	–	N#Cc1ccc2c(cnn2CC23CC(C(=O)N4N=CCC4c4ccc5nccn5c4)(C2)C3)c1 (stereo not drawn) [Example 258, 1-((3-(5-(imidazo[1,2-a]-pyridin-6-yl)-4,5-dihydro-1H-pyrazole-1-carbonyl)bicyclo-[1.1.1]pentan-1-yl)methyl)-1H-indazole-5-carbonitrile]	3820 nM
24 nM	–	O=C(N1N=CCC1c1cc(F)cc(F)c1)C12CC(Cn3ccn4nccc34)(C1)C2 (stereo not drawn) [Example 158, (3-((1H-imidazo[1,2-b]-pyrazol-1-yl)methyl)-bicyclo[1.1.1]pentan-1-yl)(5-(3,5-difluorophenyl)-4,5-dihydro-1H-pyrazol-1-yl)methanone]	62 nM
42 nM	–	O=C(N1N=CCC1c1cc(F)cc(F)c1)C12CC(Cn3c(=O)[nH]c4ccccc43)(C1)C2 (stereo not drawn) [Example 109, 1-((3-(5-(3,5-difluorophenyl)-4.5-dihydro-1H-pyrazole-1-carbonyl)bicyclo[1.1.1]-pentan-1-yl)methyl)-1,3-dihydro-2H-benzo[d]-imidazol-2-one]	470 nM
486 nM	–	O=C(N1CC(F)CC1c1cccc(F)c1)C12CC(COc3nccc(Cl)n3)(C1)C2 (stereo not drawn) [Example 101, (3-(((4-chloropyrimidin-2-yl)oxy)methyl)bicyclo[1.1.1]-pentan-1-yl)(4-fluoro-2-(3-fluorophenyl)pyrrolidin-1-yl)methanone]	1340 nM
–	less potent isomer	Cc1cc(F)c([C@H]2CC=NN2C(=O)C23CC(COc4cnc(C#N)cn4)(C2)C3)cc1F [Example 196, (R)-5-((3-(5-(2,5-difluoro-4-methylphenyl)-4,5-dihydro-1H-pyrazole-1-carbonyl)bicyclo[1.1.1]pentan-1-yl)methoxy)pyrazine-2-carbonitrile]	631 nM
528 nM	–	N#Cc1ccc2c(cnn2CC23CC(C(=O)N4CCC4c4cccc(Cl)c4Cl)(C2)C3)c1 (stereo not drawn) [Example 260, 1-((3-(2-(2,3-dichlorophenyl)-azetidine-1-carbonyl)bicyclo-[1.1.1]pentan-1-yl)methyl)-1H-indazole-5-carbonitrile]	5600 nM
169 nM	–	O=C(N1N=CCC1c1cc(F)cc(F)c1)C12CC(Cn3ncc4c3CCC4)(C1)C2 (stereo not drawn) [Example 145, (5-(3,5-difluorophenyl)-4,5-dihydro-1H-pyrazol-1-yl)(3-((5,6-dihydrocyclopenta[c]-pyrazol-1(4H)-yl)methyl)-bicyclo[1.1.1]pentan-1-yl)methanone]	701 nM
56 nM	–	N#Cc1cc(OCC23CC(C(=O)N4CC(F)CC4c4cccc(F)c4)(C2)C3)ncn1 (stereo not drawn) [Example 92, 6-((3-(4-fluoro-2-(3-fluorophenyl)pyrrolidine-1-carbonyl)bicyclo[1.1.1]-pentan-1-yl)methoxy)-pyrimidine-4-carbonitrile]	518 nM
24 nM	–	O=C(N1N=CCC1c1cc(F)cc(F)c1)C12CC(Cn3ccc4ncc(F)cc43)(C1)C2 (stereo not drawn) [Example 134, (5-(3,5-difluorophenyl)-4,5-dihydro-1H-pyrazol-1-yl)(3-((6-fluoro-1H-pyrrolo[3,2-b]-pyridin-1-yl)methyl)-bicyclo[1.1.1]pentan-1-yl)methanone]	46 nM
124 nM	–	Cc1cnn(CC23CC(C(=O)N4N=CCC4c4cc(F)cc(F)c4)(C2)C3)c1 (stereo not drawn) [Example 74, (5-(3,5-difluorophenyl)-4,5-dihydro-1H-pyrazol-1-yl)(3-((4-methyl-1H-pyrazol-1-yl)-methyl)bicyclo[1.1.1]pentan-1-yl)methanone]	514 nM
220 nM	–	N#Cc1cnc2cn(CC34CC(C(=O)N5N=CCC5c5cc(F)cc(F)c5)(C3)C4)nc2c1 (stereo not drawn) [Example 222, 2-((3-(5-(3,5-difluorophenyl)-4,5-dihydro-1H-pyrazole-1-carbonyl)bicyclo[1.1.1]pentan-1-yl)methyl)-2H-pyrazolo[4,3-b]pyridine-6-carbonitrile]	1100 nM
70 nM	–	O=C(N1N=CCC1c1cc(F)cc(F)c1)C12CC(Cn3cc4c(F)cccc4n3)(C1)C2 (stereo not drawn) [Example 21, (5-(3,5-Difluorophenyl)-4,5-dihydro-1H-pyrazol-1-yl)(3-((4-fluoro-2H-indazol-2-yl)methyl)bicyclo[1.1.1]pentan-1-yl)methanone]	114 nM
